For test [1], the target named is Btk (Mus musculus (Mouse), UniProt P35991). The experiment in a line: Btk occupancy in vivo (PCI-33380 labeling of PBMCs or splenocytes). On the set-up: species or system BALB/c mice. The following applies: Babc/L mice, after 4 hours.
Procedure: For analysis of Btk occupancy in Babc/L mice following oral dosing of compounds after 4 hours. Isolating peripheral blood mononuclear cells (PBMCs) with mouse peripheral blood separation kit (Hao Yang Biological Manufacture CO., LTD, Tianjin) were collected from Babc/L mice (1 ml blood from two mice). Spleens were processed to splenocytes followed by 5 min incubation in red blood cell lysing buffer (from mouse peripheral blood separation kit).
For test [2], the target named is BTK (Homo sapiens (Human), UniProt Q06187). Description: biochemical.
Procedure: Btk kinase activity was determined using a homogenous time resolved fluorescence (HTRF) methodology. Measurements were performed in a reaction volume of 15 μL using 384-well assay plates. Kinase enzyme, inhibitor, ATP and 1 M peptide substrate were incubated in a reaction buffer compose of Hepes 50 mM (pH7.0), NaN3 0.02%, BSA 0.01%, Orthocanadate 0.1 mM. […] For each compound, enzyme activity as measured at various concentrations of compound, Negative control reactions were performed in the absence of inhibitor in two replicates and eight no enzyme controls were used to determine baseline fluorescence levels.

Read-outs that look alike come from different tables or passages of the source. A value given as a limit tells only on which side of the number the result lay.

Chain of Btk (P35991 whole entry, looked up): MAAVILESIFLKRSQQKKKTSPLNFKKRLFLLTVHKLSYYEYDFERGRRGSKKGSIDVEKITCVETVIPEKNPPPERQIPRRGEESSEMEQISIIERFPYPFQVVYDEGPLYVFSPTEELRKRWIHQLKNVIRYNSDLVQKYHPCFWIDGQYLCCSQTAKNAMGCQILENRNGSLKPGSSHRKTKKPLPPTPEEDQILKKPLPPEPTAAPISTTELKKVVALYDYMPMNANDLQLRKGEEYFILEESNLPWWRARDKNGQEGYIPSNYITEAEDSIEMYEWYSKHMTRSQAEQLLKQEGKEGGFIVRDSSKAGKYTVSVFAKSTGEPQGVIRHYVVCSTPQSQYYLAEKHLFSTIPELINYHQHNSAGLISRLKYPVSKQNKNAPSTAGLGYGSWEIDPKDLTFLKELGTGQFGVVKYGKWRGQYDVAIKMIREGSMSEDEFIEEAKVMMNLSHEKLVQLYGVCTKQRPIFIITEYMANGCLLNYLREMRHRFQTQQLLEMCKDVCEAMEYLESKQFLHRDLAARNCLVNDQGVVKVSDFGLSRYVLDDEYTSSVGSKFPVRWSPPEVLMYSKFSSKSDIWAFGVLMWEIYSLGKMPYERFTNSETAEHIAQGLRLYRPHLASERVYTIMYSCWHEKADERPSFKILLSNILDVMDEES
Chain of BTK (Q06187 whole entry, looked up, species assumed): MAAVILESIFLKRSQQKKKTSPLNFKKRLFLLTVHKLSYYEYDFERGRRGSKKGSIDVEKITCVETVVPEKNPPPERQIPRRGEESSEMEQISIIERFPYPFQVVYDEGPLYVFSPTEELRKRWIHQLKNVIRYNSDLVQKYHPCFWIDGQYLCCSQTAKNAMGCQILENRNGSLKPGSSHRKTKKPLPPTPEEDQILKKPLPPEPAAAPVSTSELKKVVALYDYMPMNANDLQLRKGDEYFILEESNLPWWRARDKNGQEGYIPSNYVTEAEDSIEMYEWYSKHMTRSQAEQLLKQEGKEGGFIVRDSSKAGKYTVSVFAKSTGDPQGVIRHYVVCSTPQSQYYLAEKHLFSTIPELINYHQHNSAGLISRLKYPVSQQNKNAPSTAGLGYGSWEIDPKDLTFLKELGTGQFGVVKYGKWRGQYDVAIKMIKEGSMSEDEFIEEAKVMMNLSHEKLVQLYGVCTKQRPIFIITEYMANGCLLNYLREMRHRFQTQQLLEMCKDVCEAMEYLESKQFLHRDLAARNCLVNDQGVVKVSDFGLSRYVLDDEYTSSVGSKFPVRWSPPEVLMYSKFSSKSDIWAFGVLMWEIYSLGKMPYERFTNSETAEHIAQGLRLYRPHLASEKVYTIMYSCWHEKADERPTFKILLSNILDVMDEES

For `C=CC(=O)N1CCC[C@@H](c2nc(-c3ccc(Oc4cccc(OC)c4F)cc3)c3cnccn23)C1` [Compound 1, (R)-1-(3-(1-(4-(2-fluoro-3-methoxyphenoxy)phenyl)imidazo[1,5-a]pyrazin-3-yl)piperidin-1-yl)prop-2-en-1-one], on Btk [1] (5 mg/kg single oral dose), the “Btk occupancy in vivo” value is on record as “full occupancy”.
As for `C=CC(=O)N1CCCC[C@H]1c1nc(-c2ccc(Oc3cccc(OC)c3F)cc2)c2c(C)nccn12` [Compound 27, (S)-1-(2-(1-(4-(2-fluoro-3-methoxyphenoxy)phenyl)-8-methylimidazo[1,5-a]pyrazin-3-yl)piperidin-1-yl)prop-2-en-1-one], the “Btk occupancy in vivo” value at Btk [1] (10 mg/kg single oral dose) is given as “full occupancy”.
For the molecule `C=CC(=O)N1CCC[C@H]1c1nc(-c2ccc(Oc3cccc(OC)c3F)cc2)c2cnccn12` [Compound 30, (S)-1-(2-(1-(4-(2-fluoro-3-methoxyphenoxy)phenyl)imidazo[1,5-a]pyrazin-3-yl)pyrrolidin-1-yl)prop-2-en-1-one], the “Btk occupancy in vivo” value on Btk [1] (5 mg/kg single oral dose) is given as “full occupancy”.
In the case of `CC#CC(=O)N1CC[C@@H](c2nc(-c3ccc(C(=O)Nc4cc(C(F)(F)F)ccn4)cc3)c3cncc(OCC)n23)C1` [Compound 196, (R)-4-(3-(1-(but-2-ynoyl)pyrrolidin-3-yl)-5-ethoxyimidazo[1,5-a]pyrazin-1-yl)-N-(4-(trifluoromethyl)pyridin-2-yl)benzamide], the IC50 on BTK [2] was 100 to 1000 nM.
With `C=CC(=O)N1CC[C@@H](c2nc(-c3ccc(C(=O)Nc4cc(C(F)(F)F)ccn4)cc3F)c3cncc(OCC)n23)C1` [Compound 197, (R)-4-(3-(1-acryloylpyrrolidin-3-yl)-5-ethoxyimidazo[1,5-a]pyrazin-1-yl)-3-fluoro-N-(4-(trifluoromethyl)pyridin-2-yl)benzamide], the IC50 on BTK [2] (read-out: BTK Inhibition) was less than 10 nM.
`CC#CC(=O)N1CC[C@@H](c2nc(-c3ccc(C(=O)Nc4cc(C(F)(F)F)ccn4)cc3F)c3cncc(OCC)n23)C1` [Compound 198, (R)-4-(3-(1-(but-2-ynoyl)pyrrolidin-3-yl)-5-ethoxyimidazo[1,5-a]pyrazin-1-yl)-3-fluoro-N-(4-(trifluoromethyl)pyridin-2-yl)benzamide]: at BTK [2], the IC50 was 10 to 100 nM.
The molecule `CC#CC(=O)N1CCC[C@H]1c1nc(-c2ccc(C(=O)Nc3cc(C(F)(F)F)ccn3)cc2)c2cncc(OCC)n12` [Compound 203, (S)-4-(3-(1-(but-2-ynoyl)pyrrolidin-2-yl)-5-ethoxyimidazo[1,5-a]pyrazin-1-yl)-N-(4-(trifluoromethyl)pyridin-2-yl)benzamide] displayed an IC50 on BTK [2] of 100 to 1000 nM.
Regarding `C=CC(=O)N1CCC[C@H]1c1nc(-c2ccc(C(=O)Nc3cc(C(F)(F)F)ccn3)cc2)c2cncc(OCC)n12` [Compound 204, (S)-4-(3-(1-acryloylpyrrolidin-2-yl)-5-ethoxyimidazo[1,5-a]pyrazin-1-yl)-N-(4-(trifluoromethyl)pyridin-2-yl)benzamide], at BTK [2] (read-out: BTK Inhibition), the IC50 is less than 10 nM.

The record behind these values is patent US11554118B2 (priority 2017, dated 2023).
